# In US20130158024A1, “TRICYCLIC NECROSTATIN COMPOUNDS” (priority 2005, published 2013):
# Entries after “also recorded” stand apart in the source; their conditions may differ.
# Key:
# RIP2 = biological target: T1, RIP2 (Homo sapiens, UniProt O43353); test: In vitro kinase assay: autophosphorylation of RIP2; assay type: biochemical; details: RIP2-Myc from transfected 293T cells
# T1 construct: expressed in transfected cells; host or cells: 293T
# Source text: 293T cells were transfected with RIP-FLAG or RIP2-Myc vectors. […] Major bands corresponding to phosphorylated RIP, RIP2, asterisks, and IgG are shown.
# Jurkat cells = test: Apoptosis of Jurkat cells induced by FasL without or with cycloheximide; assay type: cell-based, human; details: FasL or FasL/CHX, no zVAD
# Description: Jurkat cells were treated with 5 ng/ml of FasL without (A) or with cyclohexamide (CHX) (B) to induce apoptosis, or 5 ng/ml FasL, 1 μg/ml of CHX and 100 μM of zVAD.fmk to induce CICD (B). […] Cell viability was determined after 24 hours of incubation with indicated reagents using CellTiter-Glo ATP assay. The values represent viability relative to the control Jurkat cells without the treatment of FasL, which was set as 100% viability.
# Cells were stained with DiOC6 or annexin V and EGFP-PI as described in FIG. 26A and FIG. 26B. […] Cell viability was determined by an ATP assay. Numbers represent viability normalized to that of the compound-treated cells in the absence of TNFα. […]
# We seeded cells in 96-well plates (white plates for luminescent assays; black plates for fluorescent assays; clear plates for MTT assay) at the density of 5,000-10,000 cells per well for adherent cells or 20,000-50,000 cells per well for suspension cells in 100 μl of the appropriate phenol red-free media. After incubation, we determined cell viability using one of the following methods. For the ATP assay, we used luminescence-based commercial kits (CellTiter-Glo, Promega or ATPLite-M, PerkinElmer) and analyzed luminescence using a Wallac Victor II plate reader (PerkinElmer). For Sytox assay, we incubated cells with 1 μM Sytox Green reagent for thirty minutes at 37° C., and then performed fluorescent reading. […]
# primary cortical neurons = test: Oxygen-glucose deprivation (OGD) induced death of primary cortical neurons, MAP2 cytoblot; assay type: cell-based; details: OGD 90 minutes, 24 hours recovery; 30 μM
# Description: Cells were allowed to recover in the presence of the compounds (except for the CNQX/MK801) for 24 hours, and specific neuronal viability was determined using MAP2 cytoblot. Values represent the percentages of live cells normalized to the compound treated cells, which were maintained in glucose-containing, non-deoxygenated media. **—P<0.02. […] Cells were allowed to recover in the presence of the compounds for 24 hours, and specific neuronal viability was determined using MAP2 cytoblot. Values represent the percentages of live cells normalized to the compound treated cells, which were maintained in glucose-containing, non-deoxygenated media. **—P<0.04.
# Jurkat T cells = test: Necrosis (CICD) of Jurkat T cells induced by Fas ligand, cycloheximide and zVAD, ATP assay; assay type: cell-based, human; details: FasL/CHX/zVAD
# Procedure, shortened: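 Jurkat cells given FasL (5 ng/ml), cycloheximide (1 μg/ml) and zVAD.fmk (100 μM) to drive CICD, with compounds at the indicated amounts. Viability read as ATP by CellTiter-Glo after 36 h, relative to untreated cells without FasL (100%).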
# Rat hippocampal neurons = test: Amyloid-beta toxicity in rat hippocampal neurons, ATP assay; assay type: cell-based; details: Aβ25-35, 48 or 72 hours
# Description: Viability was determined using an ATP assay. Similar results were also obtained using Aβ1-42.
# CD8+ cells = test: Activation and proliferation of CD8+ cytotoxic T lymphocytes (CTL) suppressed by zVAD.fmk; assay type: cell-based, mouse; details: 100 μM zVAD.fmk, 30 μM compound
# Description: Numbers of cells were determined using FACS analyses. Cell numbers are normalized to the number of cells in unstimulated control, which was set as 100%. […] Cells were stained with αCD8^+-FITC antibody (Pharmingen) and CD8^+ cell numbers were determined by FACS. Cell numbers are normalized to the number of cells in unstimulated control, which was set as 100%. Percentages of dead cells (line) was determined by co-staining cells with propidium iodide.
# Values represent fold increase over unstimulated control.
# Cells were stained with αCD8^+-FITC antibody (Pharmingen), and CD8^+ cell numbers were determined by FACS. Cell numbers are normalized to the number of cells in unstimulated control, which was set as 100%. Percentages of dead cells (line) were determined by co-staining cells with propidium iodide.
# B cell = B cell activation (LPS/IL-4) of splenocytes suppressed by zVAD.fmk, FACS; assay type: cell-based, mouse; details: 100 μM zVAD.fmk, 30 μM compound, 72 hours
# Description: Cells were stained with αB220-FITC antibody (Pharmingen), and B cell numbers were determined by FACS. Cell numbers are normalized to the number of cells in unstimulated control, which was set as 100%.
# T1 sequence (O43353 whole entry, species assumed): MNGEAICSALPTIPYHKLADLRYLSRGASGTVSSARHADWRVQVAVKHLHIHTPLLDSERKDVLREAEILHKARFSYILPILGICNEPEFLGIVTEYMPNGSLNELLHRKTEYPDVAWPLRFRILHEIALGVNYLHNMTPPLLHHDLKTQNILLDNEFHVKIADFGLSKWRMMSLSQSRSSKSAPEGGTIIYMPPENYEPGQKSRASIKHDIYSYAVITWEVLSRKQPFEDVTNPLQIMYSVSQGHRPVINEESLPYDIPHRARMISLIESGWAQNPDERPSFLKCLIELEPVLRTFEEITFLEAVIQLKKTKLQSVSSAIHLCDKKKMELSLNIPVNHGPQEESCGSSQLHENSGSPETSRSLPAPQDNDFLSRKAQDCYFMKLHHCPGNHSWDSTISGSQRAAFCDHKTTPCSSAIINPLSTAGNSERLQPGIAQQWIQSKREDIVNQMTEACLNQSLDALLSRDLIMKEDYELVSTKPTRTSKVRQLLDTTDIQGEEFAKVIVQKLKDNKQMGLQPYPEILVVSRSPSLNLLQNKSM
substance,measurement,setting,value
methylthiohydantoin-tryptophane [Nec-1],"effect on RIP2 autophosphorylation, in words",RIP2,lack of a Nec-1 effect on RIP2 autophosphorylation; also recorded: had no effect on RIP2 autophosphorylation
same,"protection from apoptosis, in words",Jurkat cells,but not apoptosis induced by FasL or FasL/CHX; also recorded: lack of cytoprotection by Nec-1 in apoptotic Jurkat cells treated with FasL-CHX for 24 hours; also recorded: but not by Nec-1; also recorded: could not be inhibited by Nec-1; also recorded: had no effect on FasL-CHX-induced accumulation of annexin V-positive and propidium iodide (PI)-negative cells
same,"protection from OGD-induced neuronal death, in words",primary cortical neurons,protects primary cortical neurons from oxygen-glucose deprivation induced cell death; also recorded: attenuated OGD-induced death of cortical neurons
same,"inhibition of CICD/necrosis of Jurkat cells, in words",Jurkat T cells,protected against CICD induced by FasL/CHX/zVAD; also recorded: efficiently inhibited by Nec-1; also recorded: inhibited all published examples of necrotic cell death induced by DR activation in the presence of caspase inhibitors
same,"attenuation of amyloid-beta toxicity in hippocampal neurons, in words",Rat hippocampal neurons,protection by Nec-1 from amyloid-beta toxicity; also recorded: attenuation of the aggregated amyloid-beta peptide (Aβ) toxicity in primary rat hippocampal neurons
same,"restoration of CTL activation/proliferation suppressed by zVAD.fmk, in words",CD8+ cells,restores normal activation of CTLs inhibited by caspase inhibition; also recorded: restoration of CTL proliferation by Nec-1; also recorded: completely suppressed by Nec-1; also recorded: suppression of cell proliferation was prevented in the presence of Nec-1
same,"B cell activation in the presence of zVAD.fmk, in words",B cell,promotes B cell activation; also recorded: attenuated suppression of B cell activation by zVAD.fmk
